For 80 molecules, Ki results are on record in patent US7998987B2, “Inhibitors of c-Met and uses thereof” (Vertex Pharmaceuticals Incorporated, priority 2005, dated 2011).

c-Met, sequence (P08581 25-1390): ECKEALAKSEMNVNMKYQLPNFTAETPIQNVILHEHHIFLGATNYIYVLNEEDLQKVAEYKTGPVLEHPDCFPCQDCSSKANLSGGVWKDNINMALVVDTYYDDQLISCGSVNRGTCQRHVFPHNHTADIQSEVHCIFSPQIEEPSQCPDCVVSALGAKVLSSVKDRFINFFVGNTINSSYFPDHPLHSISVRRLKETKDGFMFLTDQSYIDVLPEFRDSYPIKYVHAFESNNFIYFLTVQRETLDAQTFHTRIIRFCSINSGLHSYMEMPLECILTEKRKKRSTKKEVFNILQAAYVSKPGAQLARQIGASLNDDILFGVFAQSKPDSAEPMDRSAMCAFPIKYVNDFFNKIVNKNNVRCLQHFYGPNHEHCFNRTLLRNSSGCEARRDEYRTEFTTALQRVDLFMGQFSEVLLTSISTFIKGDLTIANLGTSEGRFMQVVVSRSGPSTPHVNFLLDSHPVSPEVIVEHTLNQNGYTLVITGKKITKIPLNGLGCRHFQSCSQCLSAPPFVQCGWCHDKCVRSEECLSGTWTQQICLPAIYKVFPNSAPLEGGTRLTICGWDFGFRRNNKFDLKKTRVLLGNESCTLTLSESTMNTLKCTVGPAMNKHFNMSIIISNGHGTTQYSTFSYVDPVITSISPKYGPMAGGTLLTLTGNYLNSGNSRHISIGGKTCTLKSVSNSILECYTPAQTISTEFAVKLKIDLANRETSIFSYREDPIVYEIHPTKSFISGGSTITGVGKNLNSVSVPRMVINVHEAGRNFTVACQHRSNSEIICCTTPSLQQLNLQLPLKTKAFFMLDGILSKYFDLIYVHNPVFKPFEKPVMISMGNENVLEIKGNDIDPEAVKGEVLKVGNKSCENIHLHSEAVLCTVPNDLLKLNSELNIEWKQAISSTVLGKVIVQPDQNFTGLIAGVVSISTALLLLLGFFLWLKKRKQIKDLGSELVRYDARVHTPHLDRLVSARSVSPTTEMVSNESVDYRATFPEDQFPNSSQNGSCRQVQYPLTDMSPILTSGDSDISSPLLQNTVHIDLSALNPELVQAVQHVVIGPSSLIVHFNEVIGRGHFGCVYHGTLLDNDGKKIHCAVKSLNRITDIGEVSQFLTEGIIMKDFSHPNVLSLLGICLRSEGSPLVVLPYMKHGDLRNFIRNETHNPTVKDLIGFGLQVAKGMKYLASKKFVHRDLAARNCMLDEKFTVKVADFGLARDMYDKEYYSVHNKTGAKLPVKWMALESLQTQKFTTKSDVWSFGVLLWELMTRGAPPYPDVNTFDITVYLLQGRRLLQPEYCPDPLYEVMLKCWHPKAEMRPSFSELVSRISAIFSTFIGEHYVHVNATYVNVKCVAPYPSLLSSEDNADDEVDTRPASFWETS

One test has as its target c-Met (Homo sapiens, UniProt P08581). Briefly: Ki determination for the inhibition of c-Met kinase activity (standard coupled enzyme system). It is filed as biochemical. Conditions: coupled enzyme system, 200 μM ATP, 80 nM c-Met, 30° C.; read-out: c-Met Ki. The essentials:
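The kinase (80 nM) turned over polyGluTyr (10 μM) with ATP (200 μM, added to start), coupled to NADH oxidation via pyruvate kinase/lactate dehydrogenase at pH 7.5 HEPES, 1.5% DMSO.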
As to `Clc1cccc(Nc2ccc3nnc(CNc4cccc(Oc5ccccc5)c4)n3n2)c1` [Compound 334], the inhibition constant (Ki) is more than 2000 nM. In the case of `Clc1cccc(Nc2ccc3nnc(COc4ccc5c(c4)OCO5)n3n2)c1` [Compound 503], the inhibition constant Ki is more than 2000 nM. Same read-out and setting: as for `C[C@@H](c1ccc(O)cc1)c1nnc2ccc(Sc3nc[nH]n3)nn12` [Compound 508], the figure is 100 to 2000 nM; as for `NC(=O)c1ccc(OCc2nnc3ccc(Nc4cccc(Cl)c4)nn23)cc1` [Compound 470], 100 to 2000 nM; as for `N#Cc1ccc(OCc2nnc3ccc(Nc4cccc(Cl)c4)nn23)c(N)c1` [Compound 430], more than 2000 nM.

For `CC(C)C(=O)N1CCCC(Nc2ccc3nnc(Cc4ccc(O)cc4)n3n2)C1` (centres unmarked) [Compound 327], the Ki is more than 2000 nM. Take `C[C@@H](c1ccc(O)cc1)c1nnc2ccc(NC3CC4CCC3C4)nn12` (some centres unmarked) [Compound 420]: the inhibition constant (Ki) is less than 100 nM. On the same count and under the same terms, the value for `COc1cc(NCc2nnc3ccc(Nc4cccc(Cl)c4)nn23)cc(OC)c1OC` [Compound 346] was more than 2000 nM.

As for `Oc1ccc2c(ccn2Cc2nnc3ccc(Nc4cccc(Cl)c4)nn23)c1` [Compound 435], the inhibition constant Ki was more than 2000 nM.

With `NC(=O)c1ncccc1OCc1nnc2ccc(Nc3cccc(Cl)c3)nn12` [Compound 478], the inhibitory constant (Ki) is more than 2000 nM.

For `CC1CC(Nc2ccc3nnc(Cc4ccc(O)cc4)n3n2)CC(C)(C)C1` (centres unmarked) [Compound 370], the inhibition constant (Ki) was less than 100 nM. On the same count and under the same terms, as for `Clc1cccc(Nc2ccc3nnc(Cn4ccc5ncccc54)n3n2)c1` [Compound 418], the figure is less than 100 nM; as for `Clc1cccc(Nc2ccc3nnc(CNc4cccc5ncccc45)n3n2)c1` [Compound 518], less than 100 nM; as for `Clc1ccc(OCc2nnc3ccc(Nc4cccc(Cl)c4)nn23)cc1` [Compound 380], more than 2000 nM.

On to `CC(=O)N[C@H]1CCCC[C@@H]1Nc1ccc2nnc([C@@H](C)c3ccc(O)cc3)n2n1` [Compound 448], for which the inhibition constant (Ki) is more than 2000 nM.

As to `CC1=Nn2c(Cc3ccc(O)cc3)nnc2SC1C` (centres unmarked) [Compound 536], the inhibition constant Ki is more than 2000 nM. On the same count and under the same terms, as for `Oc1ccc(NCc2nnc3ccc(Nc4cccc(Cl)c4)nn23)cc1` [Compound 412], the figure is 100 to 2000 nM; as for `CCOc1cccc(NCc2nnc3ccc(Nc4cccc(Cl)c4)nn23)c1` [Compound 339], more than 2000 nM; as for `COc1ccc(Cc2nnc3n2N=C(c2ccccc2)CS3)cc1` [Compound 530], 100 to 2000 nM. The same measure, in the same setting: as for `COCCC(=O)N[C@H]1CCCC[C@H]1Nc1ccc2nnc([C@@H](C)c3ccc(O)cc3)n2n1` [Compound 447], the figure is 100 to 2000 nM.

For `Clc1cccc(Nc2ccc3nnc(Cn4ccc5cccnc54)n3n2)c1` [Compound 462], the Ki is more than 2000 nM. Same read-out and setting: as for `CC(C)Oc1ccc(NCc2nnc3ccc(Nc4cccc(Cl)c4)nn23)cc1` [Compound 393], the figure is more than 2000 nM; as for `Oc1ccccc1SCc1nnc2ccc(Nc3cccc(Cl)c3)nn12` [Compound 406], more than 2000 nM; as for `C[C@H](Nc1ccc2nnc(Cc3ccc(O)cc3)n2n1)c1ccccc1` [Compound 310], 100 to 2000 nM. On to `N#CCc1ccc(OCc2nnc3ccc(Nc4cccc(Cl)c4)nn23)cc1` [Compound 382], for which the Ki is more than 2000 nM.

As for `Clc1cccc(Nc2ccc3nnc(CCc4c[nH]cn4)n3n2)c1` [Compound 395], the inhibition constant Ki was more than 2000 nM. With `Clc1cccc(Nc2ccc3nnc(Cn4ccc5cncnc54)n3n2)c1` [Compound 463], the Ki was more than 2000 nM. Still for that read-out and setting: the value for `CC(=O)Nc1ccc(OCc2nnc3ccc(Nc4cccc(Cl)c4)nn23)cc1` [Compound 469] was more than 2000 nM; that for `Nc1cc(F)ccc1OCc1nnc2ccc(Nc3cccc(Cl)c3)nn12` [Compound 432] was more than 2000 nM; that for `O=C(Nc1ccc2nnc(Cc3ccc(O)cc3)n2n1)C1CCCCC1` [Compound 399] was more than 2000 nM.

Take `CC(C)(C)Nc1ccc2nnc(Cc3ccc(O)cc3)n2n1` [Compound 401]: the inhibition constant Ki fell in the range of 100 to 2000 nM.

Consider `Oc1ccc(NCc2nnc3ccc(Nc4cccc(Cl)c4)nn23)c2cccnc12` [Compound 352], for which the Ki was more than 2000 nM. On the same count and under the same terms, the value for `NC(=O)c1ccc(NCc2nnc3ccc(Nc4cccc(Cl)c4)nn23)nc1` [Compound 455] was more than 2000 nM.

In the case of `Oc1ccc(Cc2nnc3n2N=C(c2c[nH]c4ncccc24)CS3)cc1` [Compound 524], the Ki lay in the range of 100 to 2000 nM. As for `Fc1ccc(SCc2nnc3ccc(Nc4cccc(Cl)c4)nn23)c(F)c1` [Compound 405], the Ki is more than 2000 nM. On the same count and under the same terms, the value for `Oc1c(Cc2nnc3ccc(Nc4cccc(Cl)c4)nn23)cnc2ncnn12` [Compound 516] was more than 2000 nM; that for `Oc1ccc(Cc2nnc3n2N=C(c2cccs2)CS3)cc1` [Compound 543] was less than 100 nM; that for `c1ccc(C2=Nn3c(Cc4ccc5c(c4)OCO5)nnc3SC2)cc1` [Compound 523] was 100 to 2000 nM. Same read-out and setting: as for `Clc1cccc(Nc2ccc3nnc(CNc4ccncc4)n3n2)c1` [Compound 386], the figure is more than 2000 nM.

Staying with this test, now noted: coupled enzyme system, 200 μM ATP, 10 μM polyGluTyr, 80 nM c-Met, 30° C.; read-out: c-Met Ki.
As to `c1csc(Cc2nn3c(Cc4ccc5c(c4)OCO5)nnc3s2)c1` [Compound 49], the Ki was more than 2000 nM. Still for that read-out and setting: as for `Oc1ccc(Cc2nnc3sc(Nc4cccnc4)nn23)cc1` [Compound 81], the figure is less than 100 nM; as for `Oc1ccc(Cc2nnc3sc(Nc4ccc(Cl)cc4)nn23)cc1Cl` [Compound 55], 100 to 2000 nM; as for `Cc1cc(F)ccc1Nc1nn2c(Cc3ccc(O)cc3)nnc2s1` [Compound 76], 100 to 2000 nM. Consider `FC(F)(F)c1cccc(Nc2nn3c(Cn4ccc5ncccc54)nnc3s2)c1` [Compound 136], for which the Ki was less than 100 nM. The same measure, in the same setting: as for `CC(C)(C)c1cccc(Nc2ccc3nnc(Cc4ccc(O)cc4)n3n2)c1` [Compound 182], the figure is less than 100 nM; as for `c1ccc(-c2ccc3nnc(CNc4cccnc4)n3n2)cc1` [Compound 208], more than 2000 nM.

Turning to `COc1ccc(Cc2nnc3ccc(Nc4cccc(C(C)O)c4)nn23)cc1` (centres unmarked) [Compound 257], the Ki lay within 100 to 2000 nM. With `Cc1cccc(Nc2nn3c(Cn4ccc5ncccc54)nnc3s2)c1` [Compound 135], the Ki is 100 to 2000 nM. Turning to `C[C@@H](c1ccc(O)cc1)c1nnc2sc(Nc3cccc(Cl)c3)nn12` [Compound 116], the Ki was less than 100 nM. Still for that read-out and setting: the value for `CC(c1ccc(O)cc1)c1nnc2sc(Nc3ccccc3Cl)nn12` (centres unmarked) [Compound 66] was less than 100 nM; that for `O=C1CCN(c2ccc3nnc(Cc4ccc(O)cc4)n3n2)CCN1` [Compound 190] was 100 to 2000 nM; that for `Oc1ccc(Cc2nnc3sc(Nc4cc(F)cc(F)c4)nn23)cc1Cl` [Compound 104] was less than 100 nM. The same measure, in the same setting: the value for `Oc1ccc(Cc2nnc3sc(Nc4ccc(C(F)(F)F)cc4)nn23)cc1` [Compound 43] was less than 100 nM. The same measure, in the same setting: the value for `Cc1cccc(Nc2ccc3nnc(Cc4ccc(O)c(Cl)c4)n3n2)c1` [Compound 228] was 100 to 2000 nM; that for `OCc1cccc(Nc2ccc3nnc(Cc4ccc(O)c(Cl)c4)n3n2)c1` [Compound 261] was 100 to 2000 nM. For `Oc1cccc(CCc2nnc3sc(Nc4cccc(F)c4)nn23)c1` [Compound 95], the Ki is more than 2000 nM. Take `CC(c1ccc(O)cc1)c1nnc2sc(Nc3cccc(Cl)c3)nn12` (centres unmarked) [Compound 63]: the inhibition constant (Ki) is less than 100 nM.

Consider `COc1ccccc1Nc1nn2c(Cc3ccc(O)c(Cl)c3)nnc2s1` [Compound 31], for which the Ki was in the range of 100 to 2000 nM. Still for that read-out and setting: the value for `COc1cc(Cc2nnc3sc(Nc4cccnc4)nn23)ccc1O` [Compound 51] was more than 2000 nM. The same measure, in the same setting: the value for `Oc1ccc(Cc2nnc3sc(NC4CCCCC4)nn23)cc1` [Compound 86] was 100 to 2000 nM; that for `Clc1cc(Cl)cc(Nc2ccc3nnc(Cc4ccc5c(c4)OCO5)n3n2)c1` [Compound 246] was 100 to 2000 nM. As to `Oc1ccc(Cc2nnc3ccc(NCc4cccc(F)c4)nn23)cc1` [Compound 268], the inhibitory constant (Ki) fell in the range of 100 to 2000 nM. `Oc1ccc(Cc2nnc3ccc(NCC4CCCCC4)nn23)cc1` [Compound 195]: the inhibitory constant (Ki) was 100 to 2000 nM.

Turning to `CC(c1ccc(O)cc1)c1nnc2sc(Nc3cc(F)cc(F)c3)nn12` (centres unmarked) [Compound 133], the inhibition constant Ki was less than 100 nM. Still for that read-out and setting: as for `Oc1ccc(Cc2nnc3ccc(Nc4cccc(Cl)c4)nn23)cc1Cl` [Compound 237], the figure is less than 100 nM; as for `Fc1cc(F)cc(Nc2ccc3nnc(Cc4ccc5c(c4)OCO5)n3n2)c1` [Compound 253], less than 100 nM; as for `COc1ccccc1Nc1nn2c(Cc3ccc(O)cc3)nnc2s1` [Compound 29], 100 to 2000 nM. Same read-out and setting: the value for `Clc1cc(Cl)cc(Nc2ccc3nnc(Cc4ccncc4)n3n2)c1` [Compound 247] was 100 to 2000 nM. On the same count and under the same terms, the value for `CC(C)Oc1cccc(Nc2ccc3nnc(Cc4ccc(O)cc4)n3n2)c1` [Compound 181] was less than 100 nM; that for `Oc1cccc(Cc2nnc3sc(Nc4cccc(C(F)(F)F)c4)nn23)c1` [Compound 137] was 100 to 2000 nM. Take `N#Cc1cccc(Nc2nn3c(Cc4ccc(O)cc4)nnc3s2)c1` [Compound 18]: the Ki is more than 2000 nM.

Take `CC(c1ccc(O)cc1)c1nnc2sc(C(N)=O)nn12` (centres unmarked) [Compound 88]: the Ki was more than 2000 nM.

With `C[C@@H](c1ccc(O)cc1)c1nnc2sc(Nc3cncc(Cl)c3)nn12` [Compound 162], the inhibition constant (Ki) is less than 100 nM. Still for that read-out and setting: as for `Oc1ccc(Cc2nnc3sc(Nc4cccc(Cl)c4F)nn23)cc1F` [Compound 130], the figure is 100 to 2000 nM; as for `Nc1nn2c(Cc3ccc(O)cc3)nnc2s1` [Compound 7], 100 to 2000 nM. On the same count and under the same terms, as for `COc1ccccc1Nc1nn2c(Cc3ccc(O)c(F)c3)nnc2s1` [Compound 30], the figure is 100 to 2000 nM.

Regarding `Oc1ccc(Cc2nnc3sc(Nc4cccc(Cl)c4Cl)nn23)cc1` [Compound 45], the Ki was less than 100 nM. Still for that read-out and setting: as for `O=C(Nc1ccc(F)cc1)Nc1nn2c(Cc3ccc(O)cc3)nnc2s1` [Compound 114], the figure is more than 2000 nM; as for `COC(=O)c1ccc(Nc2nn3c(Cc4ccc(O)cc4)nnc3s2)cc1` [Compound 16], less than 100 nM; as for `CC(Oc1ccc2cccnc2c1)c1nnc2sc(Nc3cccc(Cl)c3)nn12` (centres unmarked) [Compound 164], more than 2000 nM.
